Results taken from paper PMC7597377 (Science signaling, 2020).
Substitutions are numbered along the chain they refer to.

How the values were obtained:
Test in all cases: competitive radiometric binding vs [3H]E2
[1] = target: T1, ERα LBD (WT-Q, his-tagged) (Homo sapiens, UniProt P03372)
T1 sequence (P03372 302-552 limits assumed): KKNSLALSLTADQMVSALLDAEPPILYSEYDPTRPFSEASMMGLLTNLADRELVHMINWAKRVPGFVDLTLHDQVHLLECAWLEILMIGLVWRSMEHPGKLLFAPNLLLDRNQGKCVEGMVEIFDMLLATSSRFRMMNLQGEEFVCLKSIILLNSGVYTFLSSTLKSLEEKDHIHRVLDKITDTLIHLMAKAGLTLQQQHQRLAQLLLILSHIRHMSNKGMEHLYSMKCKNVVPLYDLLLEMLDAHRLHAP

[2] = target: T2, ERα LBD (WT-Q, his-tagged) (Homo sapiens, UniProt P03372, Q375L)
T2 sequence (P03372 302-552 Q375L limits assumed): T1 sequence (P03372 302-552 limits assumed) with Q74L

[3] = target: T3, ERα LBD (WT-Q, his-tagged) (Homo sapiens, UniProt P03372, Q375H)
T3 sequence (P03372 302-552 Q375H limits assumed): T1 sequence (P03372 302-552 limits assumed) with Q74H

[4] = target: T4, ERα LBD (WT-Q, his-tagged) (Homo sapiens, UniProt P03372, Q375K)
T4 sequence (P03372 302-552 Q375K limits assumed): T1 sequence (P03372 302-552 limits assumed) with Q74K

[5] = target: T5, ERα LBD (WT-Q, his-tagged) (Homo sapiens, UniProt P03372, Q375E)
T5 sequence (P03372 302-552 Q375E limits assumed): T1 sequence (P03372 302-552 limits assumed) with Q74E

Ki [1]	Ki [2]	Ki [3]	Ki [4]	Structure (SMILES)	Ki [5]
0.13 ± 0.04 nM	0.16 ± 0.04 nM	0.74 ± 0.04 nM	0.29 ± 0.02 nM	CC[C@H]1C[C@]2(C)[C@@H](O)CC[C@H]2[C@@H]2CCc3cc(O)ccc3[C@@H]12 [Et-E2]	–
0.06 ± 0.02 nM	0.07 ± 0.01 nM	0.29 ± 0.07 nM	0.29 ± 0.05 nM	CC[C@H](c1ccc(O)cc1)[C@@H](CC)c1ccc(O)cc1 [Hex]	–

Structure (SMILES)	Ki [1]	Ki [2]	Ki [3]	Ki [4]	Ki [5]
C[C@]12C[C@H](CCl)[C@@H]3c4ccc(O)cc4CC[C@H]3[C@@H]1CC[C@@H]2O [CME]	0.11 ± 0.04 nM	0.22 ± 0.05 nM	0.58 ± 0.14 nM	0.41 ± 0.1 nM	0.35 ± 0.08 nM
